Data from paper PMC11087268, “A folate inhibitor exploits metabolic differences in Pseudomonas aeruginosa for narrow-spectrum targeting” (Nature Microbiology, 2024).
Values after ≈ are worked out from the molar mass of the structure shown. Values joined by “and” are separate entries in the source; they are usually repeats but may differ in a detail not shown here. Equal values may be shown once.

What was measured:
[1] = system: Pseudomonas aeruginosa PA14; assay: MIC against P. aeruginosa PA14 in LB broth; format: cell-based
Description: (§1) Overnight cultures were diluted 1:150 in LB broth and added to a 96-well plate. Antibiotics were serially diluted 1:2 and added to columns of the 96-well plate and grown at 37 °C with continuous shaking. Cell growth was measured using optical density at 600 nm (OD600). MIC assays were performed in either BioTek Synergy HT or Tecan InfiniteM200 Pro microplate readers.

[2] = system: Staphylococcus aureus NRS384; assay: MIC (WuXi, Mueller–Hinton broth) against S. aureus NRS384; format: cell-based
Description: (§2) Bacterial colonies (4–8) of strains of interest were vortexed in saline and adjusted to an OD600 of 0.2. Strains were diluted 1:200 into CAMHB media in 96-well plates. Antibiotics were serially diluted 1:3 in DMSO, and 1 μl of each dilution was added to bacteria. The plates were incubated for 18–20 h at 37 °C before observation.

[3] = system: Escherichia coli NCM-3722; assay: MIC against E. coli NCM-3722 in LB broth; format: cell-based; settings: NCM3722, 16 h, 37 °C, OD600
Description: as §1

[4] = system: Staphylococcus aureus USA300; assay: MIC against S. aureus USA300 in LB broth; format: cell-based; settings: USA300, 16 h
Description: as §1

[5] = system: Escherichia coli ATCC BAA-198; assay: MIC (WuXi, Mueller–Hinton broth) against E. coli ATCC BAA-198; format: cell-based; settings: ATCCBAA198
Description: as §2

[6] = system: P. aeruginosa PA14 folate metabolism (dUMP, AICAR, GAR); assay: Metabolomics (LC–MS) of treated PA14; format: cell-based, Pseudomonas aeruginosa; settings: PA14, 15 min
Description: Metabolites were extracted by vacuum filtering 15 ml of treated cells using 0.45 μm HNWP Millipore nylon membranes and placing the filters into an ice-cold quenching solution of 40:40:20 methanol:acetonitrile:H2O. Extracts were kept on dry ice for 1 h and centrifuged at 16,000 g for 1 h at 4 °C. The supernatant was kept at -80 °C until mass spectrometry analysis. Liquid chromatography-mass spectrometry (LC-MS) analysis of metabolites was performed on an Orbitrap Exploris 240 mass spectrometer coupled with hydrophilic interaction liquid chromatography (HILIC)[68]. […] Waters 196006724), with a gradient of solvent A (95 vol. % H2O, 5 vol. % acetonitrile, with 20 mM ammonium acetate and 20 mM ammonium hydroxide, pH 9.4) and solvent B (acetonitrile). Flow rate was 0.15 ml min^-1 and column temperature was set at 25 °C. […] Raw mass spectrometry data were converted to mzXML format by MSConvert (ProteoWizard). Pick-peaking was done on […].0.8.0, Elucidata).

[7] = Serum (plasma protein) binding; format: in vitro ADME
Description: An initial t = 0 sample was collected. […] Serum binding parameters were determined as follows: • % Bound = 100% − % Unbound • logK = log(% Bound/100 − % Bound) • % Remaining = Area-ratio6h/Area-ratio0h × 100% • % Recovery was determined as (Area-ratiobuffer-chamber + Area-ratioplasma-chamber)/(Area-ratiototal sample) × 100

[8] = system: P. aeruginosa PA14; assay: Growth of P. aeruginosa PA14 in TMI-supplemented media with fluorofolin; format: cell-based, Pseudomonas aeruginosa; settings: Fluorofolin + TMI
[9] = 2× MIC (fluorofolin 6.3, TMP 250 μg ml^−1), one value per replicate
[10] = mouse plasma, 1 μM, 6 h, dialysis

Compound: Nc1nc(N)c2c(ccc3c2ccn3Cc2ccnc(F)c2)n1 [fluorofolin]
- MIC ([1]; Pseudomonas aeruginosa, PA14): 3.1 µg/mL
- MIC ([1]; Pseudomonas aeruginosa, PA14, 16 h): 3.12 µg/mL
- MIC ([1]; Wildtype PA14, control for each drug stock): 3.1 µg/mL
- MIC [2]: 0.03 µg/mL (≈ 0.0973 µM)
- MIC [3]: 0.312 µg/mL
- MIC [4]: 0.4 µg/mL
- MIC [5]: 7.11 µg/mL (≈ 23.1 µM)
- change of AICAR and dUMP ([6]; 2× MIC): significant upregulation
- Normalized Ion Counts AICAR [6, 9]: 667209 and 798823 and 294672
- Normalized Ion Counts GAR [6, 9]: 62925.5 and 135659 and 3851.78
- Normalized Ion Counts dUMP [6, 9]: 5000000 and 3000000 and 2000000
- % Bound [7, 10]: 71.7000%
- % Recovery [7, 10]: 91.8800%
- % Unbound [7, 10]: 28.3000%
- fraction unbound at 6 h, 1 μM ([7]; mouse plasma, 1 μM, 6 h, dialysis, read-out: % Bound (converted)): 0.283
- LogK ([7]; mouse plasma, log(% Bound/(100 − % Bound))): 0.4000
- recovery at 6 h, 1 μM ([7]; mouse, 1 μM, 6 h, dialysis): 91.9%
- remaining at 6 h, 1 μM ([7]; mouse, read-out: % Remaining after 6 hours): 89.7%
- OD600 of P. Aeruginosa PA14 ([8]; Time 0 min): 0.00375
- OD600 of P. Aeruginosa PA14 ([8]; Time 64.0617 min): 0.00775
- OD600 of P. Aeruginosa PA14 ([8]; Time 74.7383 min): 0.00825
- OD600 of P. Aeruginosa PA14 ([8]; Time 85.415 min): 0.0086
- OD600 of P. Aeruginosa PA14 ([8]; Time 96.0917 min): 0.0088
- OD600 of P. Aeruginosa PA14 ([8]; Time 106.768 min): 0.00895
- OD600 of P. Aeruginosa PA14 ([8]; Time 117.445 min): 0.00965
- OD600 of P. Aeruginosa PA14 ([8]; Time 128.123 min): 0.00995
- OD600 of P. Aeruginosa PA14 ([8]; Time 138.8 min): 0.0106
- OD600 of P. Aeruginosa PA14 ([8]; Time 149.477 min): 0.01185
- OD600 of P. Aeruginosa PA14 ([8]; Time 160.153 min): 0.0109
- OD600 of P. Aeruginosa PA14 ([8]; Time 170.83 min): 0.01125
- OD600 of P. Aeruginosa PA14 ([8]; Time 181.507 min): 0.01245
- OD600 of P. Aeruginosa PA14 ([8]; Time 192.183 min): 0.01295
- OD600 of P. Aeruginosa PA14 ([8]; Time 202.86 min): 0.0136
- OD600 of P. Aeruginosa PA14 ([8]; Time 213.537 min): 0.01355
- OD600 of P. Aeruginosa PA14 ([8]; Time 224.213 min): 0.01385
- OD600 of P. Aeruginosa PA14 ([8]; Time 234.89 min): 0.0143
- OD600 of P. Aeruginosa PA14 ([8]; Time 245.567 min): 0.0154
- OD600 of P. Aeruginosa PA14 ([8]; Time 256.243 min): 0.01575
- OD600 of P. Aeruginosa PA14 ([8]; Time 266.922 min): 0.0155
- OD600 of P. Aeruginosa PA14 ([8]; Time 277.598 min): 0.0159
- OD600 of P. Aeruginosa PA14 ([8]; Time 288.275 min): 0.01755
- OD600 of P. Aeruginosa PA14 ([8]; Time 298.952 min): 0.01775
- OD600 of P. Aeruginosa PA14 ([8]; Time 309.628 min): 0.01825
- OD600 of P. Aeruginosa PA14 ([8]; Time 320.305 min): 0.0182
- OD600 of P. Aeruginosa PA14 ([8]; Time 330.982 min): 0.0183
- OD600 of P. Aeruginosa PA14 ([8]; Time 341.658 min): 0.0174
- OD600 of P. Aeruginosa PA14 ([8]; Time 352.335 min): 0.01685
- OD600 of P. Aeruginosa PA14 ([8]; Time 363.012 min): 0.01765
- OD600 of P. Aeruginosa PA14 ([8]; Time 373.688 min): 0.01775
- OD600 of P. Aeruginosa PA14 ([8]; Time 384.365 min): 0.01795
- OD600 of P. Aeruginosa PA14 ([8]; Time 395.042 min): 0.01805
- OD600 of P. Aeruginosa PA14 ([8]; Time 405.718 min): 0.01805
- OD600 of P. Aeruginosa PA14 ([8]; Time 416.395 min): 0.01825
- OD600 of P. Aeruginosa PA14 ([8]; Time 427.072 min): 0.01805
- OD600 of P. Aeruginosa PA14 ([8]; Time 437.748 min): 0.01825
- OD600 of P. Aeruginosa PA14 ([8]; Time 448.425 min): 0.018
- OD600 of P. Aeruginosa PA14 ([8]; Time 459.102 min): 0.0175
- OD600 of P. Aeruginosa PA14 ([8]; Time 469.78 min): 0.01855
- OD600 of P. Aeruginosa PA14 ([8]; Time 480.457 min): 0.0181
